Experimental data published in patent publication US5854004A, “Process for screening substances capable of modulating a receptor-dependent cellular signal transmission path” (Boehringer Ingleheim GmbH, priority 1991, dated 1998).
Where no end group is shown, it is not given here.

Experiments:
[1] = target: T1, human neurokinin 2-receptor (Homo sapiens, UniProt P21452); experiment: Luciferase activity in NK2-test cell line A20/NK2-122
T1 sequence (P21452 1-398): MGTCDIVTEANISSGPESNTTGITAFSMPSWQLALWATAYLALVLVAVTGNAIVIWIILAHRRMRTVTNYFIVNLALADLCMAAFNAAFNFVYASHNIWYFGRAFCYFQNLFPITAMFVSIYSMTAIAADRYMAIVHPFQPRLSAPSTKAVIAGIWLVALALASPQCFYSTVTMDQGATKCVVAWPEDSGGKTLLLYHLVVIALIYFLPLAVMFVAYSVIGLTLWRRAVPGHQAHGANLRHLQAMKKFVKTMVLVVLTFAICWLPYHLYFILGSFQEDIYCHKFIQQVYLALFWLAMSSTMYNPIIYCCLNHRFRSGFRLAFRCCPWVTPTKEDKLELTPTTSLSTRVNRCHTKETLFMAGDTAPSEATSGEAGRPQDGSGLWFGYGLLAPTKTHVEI
Procedure: (§1) 15-20 days after transfection, individual cell clones were transferred into 96-well microtitre plates and further cultivated. […] Approximately 40,000 cells in each clone were sown, in a procedure repeated 6 times, in 200 μl per well of a light-impervious 96-well microtitre plate coated with tissue culture (Microlite™, Dynatech Laboratories) and incubated overnight at 37° C. Three mixtures were treated with 10 ng TPA/ml and incubated for a further 8 hours. Then the medium was removed and the cells were washed twice with PBS.
This Example illustrates the preparation of a test cell line for the human neurokinin 2 (NK2)-receptor which is coupled to the phospholipase C-signal transduction pathway. This test cell line makes it possible, by measurement of the luciferase activity, to identify substances which modulate the intracellular IP3 /DAG concentrations, depending on the receptor.
(§2) The pretest cell line A20 was transfected, as described under a), by electroporation with the plasmid pAHyg-NK2, which had previously been linearised with BglII. From the day after transfection onwards, the cells were grown in selection medium, as used for the cell line A20 and additionally enriched with 150 μg/ml hygromycin B (Sigma). Individual clones were tested for inducibility of the luciferase activity as described under a).

cell line CHO C6-13 = experiment: Luciferase expression in CRE-pretest cell line CHO C6-13; settings: for change in luciferase expression/activity: 3 hours treatment, FIG. 33
Procedure: The transfection by electroporation was carried out as follows: after removal of the medium the cells were detached from the surface by means of a trypsin/PBS solution, suspended in medium and pelleted for 5 minutes at 250×g. The cells were washed in HBS (10 mM HEPES pH 7.4, 150 mM NaCl) and pelleted by centrifuging. The cells were suspended in HBS in a density of 1×10^7 cells/ml. 0.8 ml of cell suspension were mixed with 20 μg of DNA of the plasmid pADneo2-C6-BGL linearised with ScaI and transferred into an electroporation dish. […] After the electroporation the cells were diluted in the medium mentioned above, 20,000 cells per 90 mm culture dish was sown and incubated overnight at 37° C.
Two batches of each were treated with 20 μM forskolin and incubated for a further 5 hours at 37° C. Then the medium was removed from all the cells and the cells were washed with PBS.
Cells of the cell line CHO C6-13 were treated for 3 hours with various substances which alter the intracellular concentration of cAMP or IP3 /DAG or simulate a change in concentration, and also treated with receptor-specific agonists which influence the above-mentioned signal transduction mechanisms.

luciferase = luciferase (Photinus pyralis, UniProt P08659); experiment: Effect of reagent component concentration on luciferase measuring signal; assay type: biochemical
luciferase, sequence (P08659 whole entry): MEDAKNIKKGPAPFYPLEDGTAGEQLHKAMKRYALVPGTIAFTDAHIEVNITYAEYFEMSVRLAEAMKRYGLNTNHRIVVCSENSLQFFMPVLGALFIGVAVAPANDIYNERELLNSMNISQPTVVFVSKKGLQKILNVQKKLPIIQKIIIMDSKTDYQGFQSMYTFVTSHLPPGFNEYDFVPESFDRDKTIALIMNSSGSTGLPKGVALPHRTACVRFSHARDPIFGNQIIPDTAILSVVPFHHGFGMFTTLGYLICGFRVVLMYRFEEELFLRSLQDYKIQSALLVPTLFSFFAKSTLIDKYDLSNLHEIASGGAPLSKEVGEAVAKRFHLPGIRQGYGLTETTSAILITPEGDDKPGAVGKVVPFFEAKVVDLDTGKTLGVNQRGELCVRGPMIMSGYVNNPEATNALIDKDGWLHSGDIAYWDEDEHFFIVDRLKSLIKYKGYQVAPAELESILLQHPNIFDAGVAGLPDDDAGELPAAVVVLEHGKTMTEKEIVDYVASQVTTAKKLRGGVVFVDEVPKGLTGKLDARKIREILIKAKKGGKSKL
Procedure: The effect of varying the concentration of ATP, luciferin, MgSO4. 7H2 O, dithiothreitol (DDT), β-mercaptoethanol (BME), sodium tripolyphosphate (NaTPP), Triton X-100 and the pH on the luciferase measuring signal obtained was determined (Table 2). The measurements obtained 3 minutes after the addition of the reagent were used for comparison (given as percentage of the maximum measuring signal obtained).

[2] = target: T2, human dopamine D1-receptor (Homo sapiens, UniProt P21728); experiment: Induction of pADneo2-C6-BGL (CRE) via dopamine-D1-receptor in co-transfected COS-7 cells; settings: 1 μM apomorphine and 1 μM SCH23390
T2 sequence (P21728 whole entry): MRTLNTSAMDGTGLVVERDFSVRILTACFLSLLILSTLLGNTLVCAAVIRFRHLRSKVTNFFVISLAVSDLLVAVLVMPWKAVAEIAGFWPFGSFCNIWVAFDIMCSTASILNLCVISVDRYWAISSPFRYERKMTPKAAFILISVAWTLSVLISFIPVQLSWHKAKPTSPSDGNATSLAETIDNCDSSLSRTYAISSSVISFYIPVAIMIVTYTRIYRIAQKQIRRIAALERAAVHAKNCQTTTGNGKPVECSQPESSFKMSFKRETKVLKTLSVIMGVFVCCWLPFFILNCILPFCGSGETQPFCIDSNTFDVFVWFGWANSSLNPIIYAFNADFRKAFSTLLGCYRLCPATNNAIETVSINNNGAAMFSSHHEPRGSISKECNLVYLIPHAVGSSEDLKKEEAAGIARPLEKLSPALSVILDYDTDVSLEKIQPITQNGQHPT

[3] = target: T2, human dopamine D1-receptor; experiment: Luciferase activity in dopamine D1-receptor test cell line CHO 13D1-38
Procedure: The cell line CHO C6-13 characterised above was transfected, as described under a), by electroporation with plasmid pAD-CMV2:D1, which had previously been linearised with FspI.
For the use of test cell lines in an automatic screening system with a high throughput rate it is advantageous to use microtitre plates having 96 wells per plate. For this purpose, 60,000 cells (CHO C6-13 or CHO 13D1-38) were sown in 200 μl medium per well in light-impermeable microtitre plates coated with tissue culture
(Microlite™, Dynatech Labroatories) and incubated overnight at 37° C. Then various chemicals were added to the cells and they were incubated for a certain length of time (usually 3 hours). After removal of the medium the cells were washed with PBS, lysed in 1% Triton X-100 and the luciferase activity was measured in a 96-well luminometer (ML-1000, Dynatech) (FIG. 36).
In order to simulate a screening process in which the test substances are preferably supplied in a uniform solvent, a final concentration of 1% DMSO was used in this experiment.

cell line A20 = experiment: Luciferase induction in stable TRE-pretest cell line A20 (A549, pBHluc1.3); settings: A20, no receptor DNA
Procedure: In order to produce a stable (pre-)test cell line for substances which influence the expression of the luciferase gene by direct or receptor-mediated modulation of the IP3 /DAC-signal transduction pathway, A549 cells were simultaneously transfected with the plasmid pBHluc1.3 and the selection plasmid pRSVneo by electroporation as follows: after removal of the medium the cells were detached from the surface by means of a trypsin/PBS solution, suspended in medium and sedimented for 5 minutes at 250×g. […] 0.8 ml of cell suspension were combined with 20 μg of pBHluc1.3 and 2 μg of pRSVneo. Both plasmids had previously been linearised with BamHI.
as §1, §2

human 5HT2-receptor = human 5HT2-receptor (Homo sapiens, UniProt P28223); experiment: cell-based
human 5HT2-receptor, sequence (P28223 whole entry): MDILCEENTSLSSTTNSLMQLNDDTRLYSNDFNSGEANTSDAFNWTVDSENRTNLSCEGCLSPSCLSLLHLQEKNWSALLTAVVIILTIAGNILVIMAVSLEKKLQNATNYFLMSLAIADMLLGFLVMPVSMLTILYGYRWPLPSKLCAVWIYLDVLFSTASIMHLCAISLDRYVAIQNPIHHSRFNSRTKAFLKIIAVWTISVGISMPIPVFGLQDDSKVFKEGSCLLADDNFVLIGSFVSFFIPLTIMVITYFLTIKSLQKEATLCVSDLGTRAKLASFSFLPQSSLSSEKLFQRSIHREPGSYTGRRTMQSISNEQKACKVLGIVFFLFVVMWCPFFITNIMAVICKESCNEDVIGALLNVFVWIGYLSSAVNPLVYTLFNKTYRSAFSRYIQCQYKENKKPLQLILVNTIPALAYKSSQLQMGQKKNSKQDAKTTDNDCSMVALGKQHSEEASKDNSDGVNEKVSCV
Text: The human 5HT2-receptor is another example of a receptor coupled to the phospholipase C-signal transduction pathway. The TRE-cell line A20 is therefore also suitable in this case as a starting cell line for establishing a test cell line in order to discover substances which modulate the activity of the 5HT2-receptor.
The plasmid pAHyg-5HT2, linearised with BglII, was for this purpose transfected into the cell line A20 by electroporation as described under a) and grown in selection medium.
For this purpose the cells were simultaneously treated with a constant amount of serotonin (1 μg) and increasing amounts of antagonist.

COc1ccccc1CN[C@H]1C2CCN(CC2)[C@H]1C(c1ccccc1)c1ccccc1 (relative stereo) [BIBO 2020, ±cis-3-(2-methoxybenzylamino)-2-benzhydrylquinulidine]
inhibition of the agonistic effect of neurokinin A [1]: effective at higher concentrations (P7492>BIBO 2020>H-9290)

CNc1ccc2oc(C[C@H]3O[C@@]4(CC[C@H]3C)O[C@H]([C@H](C)C(=O)c3ccc[nH]3)[C@H](C)C[C@H]4C)nc2c1C(=O)O [A23187]
change in luciferase expression/activity (cell line CHO C6-13): did not bring about any significant change in the luciferase activity

Nc1ncnc2c1ncn2[C@@H]1O[C@H](COP(=O)(O)OP(=O)(O)OP(=O)(O)O)[C@@H](O)[C@H]1O [ATP, adenosine triphosphate]
% max. signal (luciferase) (luciferase; ATP 0.06 g/l): 61%
% max. signal (luciferase) (luciferase; ATP 0.13 g/l): 95%
% max. signal (luciferase) (luciferase; ATP 0.29 g/l): 100%
% max. signal (luciferase) (luciferase; ATP 0.65 g/l): 98%
% max. signal (luciferase) (luciferase; ATP 1.47 g/l): 83%
% max. signal (luciferase) (luciferase; ATP 3.30 g/l): 78%

OCCS [BME, β-mercaptoethanol]
max. signal (luciferase) (luciferase; BME 0.59 ml/l): 80%
max. signal (luciferase) (luciferase; BME 0.88 ml/l): 82%
max. signal (luciferase) (luciferase; BME 1.32 ml/l): 68%
max. signal (luciferase) (luciferase; BME 1.98 ml/l): 84%
max. signal (luciferase) (luciferase; BME 2.96 ml/l): 86%
max. signal (luciferase) (luciferase; BME 4.44 ml/l): 100%
max. signal (luciferase) (luciferase; BME 6.67 ml/l): 94%
max. signal (luciferase) (luciferase; BME 10.0 ml/l): 93%

CC(C)Cn1c(=O)n(C)c(=O)c2[nH]cnc21 [IBMX, isobutylmethylxanthine]
change in luciferase expression/activity (cell line CHO C6-13): increased
shift in the forskolin dosage-activity curve to lower forskolin concentrations (cell line CHO C6-13; with IBMX): one order of magnitude
influence on maximum induction of the luciferase reporter gene (cell line CHO C6-13; with forskolin): not significantly influenced

O=C(O)[C@H]1CSC(c2nc3ccc(O)cc3s2)=N1 [Lucifenn]
% max. signal (luciferase) (luciferase; luciferin 1.32 mg/l): 42%
% max. signal (luciferase) (luciferase; luciferin 1.98 mg/l): 58%
% max. signal (luciferase) (luciferase; luciferin 2.96 mg/l): 65%
% max. signal (luciferase) (luciferase; luciferin 4.44 mg/l): 75%
% max. signal (luciferase) (luciferase; luciferin 6.67 mg/l): 88%
% max. signal (luciferase) (luciferase; luciferin 10.0 mg/l): 95%
% max. signal (luciferase) (luciferase; luciferin 15.0 mg/l): 100%

O.O.O.O.O.O.O.O=S(=O)([O-])[O-].[Mg+2] [MgSO4, magnesium sulphate-heptahydrate]
% max. signal (luciferase) (luciferase; MgSO4 0.35 g/l): 20%
% max. signal (luciferase) (luciferase; MgSO4 0.53 g/l): 48%
% max. signal (luciferase) (luciferase; MgSO4 0.79 g/l): 64%
% max. signal (luciferase) (luciferase; MgSO4 1.19 g/l): 77%
% max. signal (luciferase) (luciferase; MgSO4 1.78 g/l): 77%
% max. signal (luciferase) (luciferase; MgSO4 2.67 g/l): 100%
% max. signal (luciferase) (luciferase; MgSO4 4.00 g/l): 100%

O=P(O)(O)OP(=O)(O)OP(=O)(O)O [NaTPP, sodium tripolyphosphate]
% max. signal (luciferase) (luciferase; NaTPP 5.01 mg/l): 54%
% max. signal (luciferase) (luciferase; NaTPP 15.8 mg/l): 64%
% max. signal (luciferase) (luciferase; NaTPP 50.0 mg/l): 82%
% max. signal (luciferase) (luciferase; NaTPP 158 mg/l): 100%
% max. signal (luciferase) (luciferase; NaTPP 500 mg/l): 75%

CN1CCc2cc(Cl)c(O)cc2[C@@H](c2ccccc2)C1 [SCH23390]
prevention of agonist-mediated induction (CRE) [2]: prevented

CC(C)C[C@H]1C(=O)N2CCC[C@H]2[C@]2(O)O[C@](NC(=O)[C@@H]3C=C4c5cccc6[nH]c(Br)c(c56)C[C@H]4N(C)C3)(C(C)C)C(=O)N12 [bromocryptin]
luciferase induction at the highest concentration (attributed to cell toxicity or low pH) ([3]; 100 μM bromocryptin): reversal of luciferase induction
activity on luciferase induction ([3]; FIG. 38B): dosage-dependent activity
change in luciferase expression/activity (cell line CHO C6-13): did not bring about any significant change in the luciferase activity

C[N+](C)(C)CCOC(N)=O [carbachol]
change in luciferase expression/activity (cell line CHO C6-13): did not bring about any significant change in the luciferase activity

CCCC(=O)Nc1ncnc2c1ncn2[C@@H]1O[C@@H]2COP(=O)(O)O[C@H]2[C@H]1OC(=O)CCC [dibutyryl-cAMP]
change in luciferase expression/activity (cell line CHO C6-13): increased

NCCc1c[nH]c2ccc(O)cc12 [serotonin]
induction of luciferase activity by receptor agonists in pretest cell line A20 (cell line A20): could not be induced
selectivity of dosage-activity curves (human 5HT2-receptor): selective for serotonin
induction time up to which luciferase activity increases continuously (human 5HT2-receptor; serotonin 1 μM): 6 h
change in luciferase expression/activity (cell line CHO C6-13): did not bring about any significant change in the luciferase activity

O=C(CCCN1CCC2(CC1)C(=O)NCN2c1ccccc1)c1ccc(F)cc1 [spiperone]
inhibition of the agonistic activity of serotonin (human 5HT2-receptor; constant serotonin (1 μg), increasing antagonist, FIG. 32B): able to be inhibited

neurokinin A: neurokinin (Sigma), agonist at neurokinin 2-receptor (HKTDSFVGLM-NH2; ends and bridges not checked; UniProt P20366 98-107, looked up)
induction of luciferase activity by receptor agonists in pretest cell line A20 (cell line A20): could not be induced by any of the three tachykinins

neuromedin K (NMK): neurokinin (Sigma), tachykinin
induction of luciferase activity by receptor agonists in pretest cell line A20 (cell line A20): could not be induced by any of the three tachykinins
relative effectiveness of the neurokinins ([1]; dosage activity curves, FIG. 29A): NKA>neuromedin K (NMK)>substance P (SP)

substance P (SP): neurokinin (Sigma), tachykinin (RPKPQQFFGLM-NH2; ends and bridges not checked; UniProt P20366 58-68, looked up)
induction of luciferase activity by receptor agonists in pretest cell line A20 (cell line A20): could not be induced by any of the three tachykinins
